Results as given in patent publication US20210077382A1, “COMPOSITIONS, DEVICES, AND METHODS FOR THE TREATMENT OF OPIOID-RECEPTOR-MEDIATED CONDITIONS” (Opiant Phamaceuticals, Inc., priority 2016, published 2021).

Experiment: Clinical pharmacokinetic crossover study of IN, IM and oral naltrexone; plasma naltrexone and 6β-naltrexol by LC-MS/MS
Description: Study Goals. […] Secondary endpoints included adverse events (AEs), vital signs (heart rate, sitting blood pressure, and respiration rate), electrocardiogram (ECG), clinical laboratory changes and nasal irritation using the nasal irritation scale.
Study design. […] This was an in-patient open-label, crossover study involving approximately 14 healthy volunteers. […] Subjects stayed in the in-patient facility for 13 days to complete the entire study. Subjects were called 3 to 5 days after discharge to inquire concerning AEs and concomitant medications since discharge. Informed consent was obtained from all subjects, and all were screened for eligibility to participate in the study, including medical history, physical examination, clinical chemistry, coagulation markers, hematology, infectious disease serology, urinalysis, urine drug and alcohol toxicology screen, vital signs and ECG.
On days of study drug administration, a 12-lead ECG was performed approximately 1 hour prior to dosing and at approximately 1 and 4 hours post-dose. Vital signs were measured pre-dose and about 1 and 4 hours post-dose.
Study Drugs and Dosing. […] The IN (40 mg/mL) formulations were made by the staff pharmacist at Vince & Associates; the vehicle for the IN formulations was sterile water for injection. The IM formulation (2 mg/mL) was made by the staff pharmacist at Vince & Associates; the vehicle was sterile saline for injection.
Subjects stayed in the in-patient facility for 13 days to complete the entire study and were discharged 2 days after the fourth dose.
PK Assessments. […] Plasma was separated from whole blood and stored frozen at […] until assayed.
Analysis. […] Dose-adjusted values for AUCs and Cmax were calculated. The relative extent of IN and PO absorption (IN and PO versus IM) will be estimated from the dose-corrected AUCs.

[1] = naltrexone 2 mg IM, N = 10, listed as 6β-Naltrexol
[2] = naltrexone 4 mg IN plus […] Intravail, N = 12

Oc1ccc2c3c1O[C@H]1[C@H](O)CC[C@@]4(O)[C@@H](C2)N(CC2CC2)CC[C@]314 [6β-naltrexol]
Difference between the sexes for the PK parameters (IN, IM or PO administration, except naltrexone Cmax after 4 mg IN): no clinically meaningful difference
Mean Cmax of 6β-naltrexol (after the IN administration of naltrexone): approximately 3 ng/mL
Ratio of AUC0-inf for 6β-naltrexol compared to that of naltrexone (after the oral dose): 25
AUC0-inf of 6β-naltrexol, mean (CV %) (naltrexone 2 mg IM, N = 10): 27.1 ng·h/mL
AUC0-inf/Dose of 6β-naltrexol, mean (CV %) (naltrexone 2 mg IM, N = 10): 15.0 (19.0) h · ng/mL/mg
AUC0-t of 6β-naltrexol, mean (CV %) (naltrexone 2 mg IM, N = 10): 25.1 (18.3) h · ng/mL
AUC0-t/Dose of 6β-naltrexol, mean (CV %) (naltrexone 2 mg IM, N = 10): 13.9 (18.3) h · ng/mL/mg
AUCextrap of 6β-naltrexol, mean (CV %) (naltrexone 2 mg IM, N = 10): 7.02 (29.4) %
Cmax of 6β-naltrexol, mean (CV %) (naltrexone 2 mg IM, N = 10): 1.5 ng/mL
Cmax/Dose of 6β-naltrexol, mean (CV %) (naltrexone 2 mg IM, N = 10): 0.838 ng/mL/mg
Tmax of 6β-naltrexol, median (minimum, maximum) (naltrexone 2 mg IM, N = 10): 3.00 h
t1/2 of 6β-naltrexol, mean (CV %) (naltrexone 2 mg IM, N = 10): 12.4 (13.2) h
λz of 6β-naltrexol, mean (CV %) (naltrexone 2 mg IM, N = 10): 0.0570 (14.8) 1/h
Cmax of 6β-naltrexol, mean (CV %) [1]: 1.52 (26.8) ng/mL
Cmax/Dose of 6β-naltrexol, mean (CV %) [1]: 0.838 (26.8) ng/mL/mg
Mean concentration of 6β-naltrexol (naltrexone 2 mg IN, hour 0): 0.0661 ng/mL
Mean concentration of 6β-naltrexol (naltrexone 2 mg IN, hour 0.042): 0.0627 ng/mL
Mean concentration of 6β-naltrexol (naltrexone 2 mg IN, hour 0.083): 0.12 ng/mL
Mean concentration of 6β-naltrexol (naltrexone 2 mg IN, hour 0.17): 0.283 ng/mL
Mean concentration of 6β-naltrexol (naltrexone 2 mg IN, hour 0.25): 0.454 ng/mL
Mean concentration of 6β-naltrexol (naltrexone 2 mg IN, hour 0.33): 0.677 ng/mL
Mean concentration of 6β-naltrexol (naltrexone 2 mg IN, hour 0.5): 0.852 ng/mL
Mean concentration of 6β-naltrexol (naltrexone 2 mg IN, hour 0.75): 1.08 ng/mL
Mean concentration of 6β-naltrexol (naltrexone 2 mg IN, hour 1): 1.1 ng/mL
Mean concentration of 6β-naltrexol (naltrexone 2 mg IN, hour 2): 1.39 ng/mL
Mean concentration of 6β-naltrexol (naltrexone 2 mg IN, hour 3): 1.48 ng/mL
Mean concentration of 6β-naltrexol (naltrexone 2 mg IN, hour 4): 1.46 ng/mL
Mean concentration of 6β-naltrexol (naltrexone 2 mg IN, hour 6): 1.3 ng/mL
Mean concentration of 6β-naltrexol (naltrexone 2 mg IN, hour 8): 1.08 ng/mL
Mean concentration of 6β-naltrexol (naltrexone 2 mg IN, hour 12): 0.81 ng/mL
Mean concentration of 6β-naltrexol (naltrexone 2 mg IN, hour 16): 0.595 ng/mL
Mean concentration of 6β-naltrexol (naltrexone 2 mg IN, hour 24): 0.365 ng/mL
Mean concentration of 6β-naltrexol (naltrexone 2 mg IN, hour 30): 0.255 ng/mL
Mean concentration of 6β-naltrexol (naltrexone 2 mg IN, hour 36): 0.18 ng/mL
Mean concentration of 6β-naltrexol (naltrexone 2 mg IN, hour 48): 0.106 ng/mL
Mean concentration of 6β-naltrexol (naltrexone 4 mg IN + […] Intravail, hour 0): 0.0682 ng/mL
Mean concentration of 6β-naltrexol (naltrexone 4 mg IN + […] Intravail, hour 0.042): 0.082 ng/mL
Mean concentration of 6β-naltrexol (naltrexone 4 mg IN + […] Intravail, hour 0.083): 0.238 ng/mL
Mean concentration of 6β-naltrexol (naltrexone 4 mg IN + […] Intravail, hour 0.17): 0.994 ng/mL
Mean concentration of 6β-naltrexol (naltrexone 4 mg IN + […] Intravail, hour 0.25): 1.86 ng/mL
Mean concentration of 6β-naltrexol (naltrexone 4 mg IN + […] Intravail, hour 0.33): 2.55 ng/mL
Mean concentration of 6β-naltrexol (naltrexone 4 mg IN + […] Intravail, hour 0.5): 2.84 ng/mL
Mean concentration of 6β-naltrexol (naltrexone 4 mg IN + […] Intravail, hour 0.75): 2.93 ng/mL
Mean concentration of 6β-naltrexol (naltrexone 4 mg IN + […] Intravail, hour 1): 2.73 ng/mL
Mean concentration of 6β-naltrexol (naltrexone 4 mg IN + […] Intravail, hour 2): 2.9 ng/mL
Mean concentration of 6β-naltrexol (naltrexone 4 mg IN + […] Intravail, hour 3): 2.61 ng/mL
Mean concentration of 6β-naltrexol (naltrexone 4 mg IN + […] Intravail, hour 4): 2.45 ng/mL
Mean concentration of 6β-naltrexol (naltrexone 4 mg IN + […] Intravail, hour 6): 2.03 ng/mL
Mean concentration of 6β-naltrexol (naltrexone 4 mg IN + […] Intravail, hour 8): 1.67 ng/mL
Mean concentration of 6β-naltrexol (naltrexone 4 mg IN + […] Intravail, hour 12): 1.25 ng/mL
Mean concentration of 6β-naltrexol (naltrexone 4 mg IN + […] Intravail, hour 16): 0.923 ng/mL
Mean concentration of 6β-naltrexol (naltrexone 4 mg IN + […] Intravail, hour 24): 0.618 ng/mL
Mean concentration of 6β-naltrexol (naltrexone 4 mg IN + […] Intravail, hour 30): 0.457 ng/mL
Mean concentration of 6β-naltrexol (naltrexone 4 mg IN + […] Intravail, hour 36): 0.312 ng/mL
Mean concentration of 6β-naltrexol (naltrexone 4 mg IN + […] Intravail, hour 48): 0.175 ng/mL
AUC0-inf of 6β-naltrexol, mean (CV %) [2]: 46.3 (18.3) h · ng/mL
AUC0-inf/Dose of 6β-naltrexol, mean (CV %) [2]: 12.8 (18.3) h · ng/mL/mg
AUC0-t of 6β-naltrexol, mean (CV %) [2]: 43.0 (17.4) h · ng/mL
AUC0-t/Dose of 6β-naltrexol, mean (CV %) [2]: 11.9 (17.4) h · ng/mL/mg
AUCextrap of 6β-naltrexol, mean (CV %) [2]: 7.02 (37.3) %
Cmax of 6β-naltrexol, mean (CV %) [2]: 3.29 (23.7) ng/mL
Cmax/Dose of 6β-naltrexol, mean (CV %) [2]: 0.908 (23.7) ng/mL/mg
Tmax of 6β-naltrexol, median (minimum, maximum) [2]: 0.75 h
t1/2 of 6β-naltrexol, mean (CV %) [2]: 12.8 (14.6) h
